Results taken from patent US20210244028A1, “TREATMENT FOR REMOVING ECTOPARASITES FROM FISH” (priority 2018, published 2021).
Read-outs that look alike come from different tables or passages of the source.

What was measured:
Lepeophtheirus salmonis [1] = conditions: 20 ppm (nitenpyram 19 ppm); for percentage of sea lice that dropped from treated fish at the end of the treatment period: culled fish
Experimental: The fish were acclimatised until normal feeding behaviour resumed, up to a maximum of 10 days, prior to challenge. The fish were housed in 750 litre tanks at a stocking density of no greater than 35 kg/m3. Tanks were provided with a continuous supply of seawater at a flow rate greater than 5 L/min at a temperature of 4.8-10.4° C. The photoperiod was set at 12 hours light: 12 hours dark.
The fish were challenged in a static bath with copepodid instar of Lepeophtheirus salmonis with the appearance of egg strings freshly removed from adult female lice at a target titre of 1,250-1,700 copepodids per tank
Egg strings were harvested from gravid sea lice and incubated in upwelling chambers until nauplii eclosion. Nauplii were allowed to moult through to the copepodid instar (5 days at approx. 10° C.) and then the tank water was filtered through a 100 μm mesh before re-suspending the copepodids in 225 mL of sea water. A 25 mL sample was removed which was then split into 1-2 mL samples in a 24-well plate and the nauplii/copepodids were counted under a stereo microscope. When abundance was sufficient and a minimum of 80% were copepodids the fish were challenged for 8 hours under static flow in the dark.
Fish were randomly selected from tanks, lightly sedated in a 90 ppm MS222 solution sufficient only to induce loss of equilibrium before being sacrificed by a non-recoverable blow to the head. Between 4 and 33 fish were required per treatment.
Culled fish were then suspended in treatment tanks. Fish were suspended in the tank horizontally from cable ties (one through the opercular cavity, one around the peduncle) and wire attached to a wooden rod). One 20 L tank of test item at 20 ppm was used per day. Lice on culled fish were exposed for either 5, 10, 15, 30 or 60 minutes (negative control was only exposed for 60 minutes as this would cover the longest exposure period to be tested). The order within treatment was randomised.
(§1) Lice were monitored continuously for the duration of the exposure and behavioural observations noted, including detachment of lice from fish. At the end of exposure lice were either removed from the tank or fish, placed into small vented plastic screw-top containers (125 mL, LDPE, 25 mm hole drilled into lid and secured with 200 μm mesh), and transferred to a clean tank supplied with filtered sea water and held there for 24 h. Lice which had detached from fish were kept separate from those that had not detached.
On the day of exposure, 200 mg of the test ectoparasite treatments was added to 1 L of sea water. Only 192 mg of nitenpyram was supplied. The solution was mechanically stirred for 30 minutes, using a stirring plate and magnetic flea (VWR), at a speed sufficient to generate a strong vortex to ensure a homogenous solution. This was then transferred into an approx. 25 L clear plastic tank containing 9 L of sea water. The solution was then mixed for a further 10 minutes using a small pump (Fluval Sea CP1), which was then removed from the tank prior to addition of fish.
Each treatment requiring 1 to 4 fish per individual treatment per replicate and 2 to 13 fish per group per replicate. Treatments with negative control (sea water), dinotefuran, clothianidin and thiamethoxam were replicated twice, and for imidacloprid three times. There was only one replicate per treatment for nitenpyram. The mean number of lice used per individual treatment was 5.5 to 10, with the mean per group being 6.2-7.2 lice.

farmed Atlantic salmon = test: Observation of fish during field well boat treatment (Example 4); type: in vivo; conditions: 20 ppm, 60 minutes
Experimental: The effectiveness of imidacloprid against pre-adult and adult stages of L. salmonis and Caligus sp. infections on farmed Atlantic salmon was investigated by performing pre- and post-treatment sea lice counts on salmon undergoing a treatment with imidacloprid. This trial was conducted at a commercial salmon farm in Norway. The salmon were pumped onto a well boat and were exposed to 20 ppm imidacloprid for 60 minutes. The average weight of the salmon was 3.5 kg and the average number of salmon per pen was 180,000. 30 fish per pen were assessed for L. salmonis and Caligus sp., and the number of each L. salmonis life stage found was recorded. This was performed within 24 hours prior to treatment, and within 24 hours after treatment.
The numbers of sea lice observed per fish for this trial for each of the four tested pens according to sea lice life cycle state, pre- or post-administration of active are presented in Table 5.

Lepeophtheirus salmonis [2] = conditions: 20 ppm (nitenpyram 19 ppm); for percentage responsiveness for sea lice recovered from fish at the end of the treatment period: 24 h post-treatment; for percentage responsiveness of lice recovered from tank at treatment end at 24 hours post-treatment: lice knocked off fish
Experimental: as §1
24 h post-treatment lice were removed from the screw-top containers to check if they were alive and, if so, if they were responsive. Categories were defined as follows: alive—movement detected; responsive—alive and actively avoids stimulation in a coordinated manner; dead—no movement detected.
Lice defined as responsive could potentially re-attach to a fish. After assessment lice were transferred to 70% alcohol in case determination of instar and sex was required.

[3] = exposure 15 min, * only one louse knocked down
[4] = exposure 30 min, * only one louse knocked down
[5] = exposure 60 min, * only one louse knocked down

SMILES: O=[N+]([O-])NC1=NCCN1Cc1ccc(Cl)nc1 [imidacloprid]
- percentage of sea lice that dropped from treated fish at the end of the treatment period (Lepeophtheirus salmonis [1]; exposure 5 min): 0%
- knockdown times (mean±SEM) (Lepeophtheirus salmonis [1]; exposure 10 min): 481 ± 60 s
- percentage of lice for which their knockdown time equalled that of the exposure time (Lepeophtheirus salmonis [1]; exposure 10 min): 33.3%
- percentage of sea lice that dropped from treated fish at the end of the treatment period (Lepeophtheirus salmonis [1]; exposure 10 min): 20.0%
- percentage of sea lice that dropped from treated fish at the end of the treatment period (Lepeophtheirus salmonis [1]; exposure 15 min): 42.9%
- knockdown times (mean±SEM) (Lepeophtheirus salmonis [1]; [3]): 586 ± 114 s
- percentage of lice for which their knockdown time equalled that of the exposure time (Lepeophtheirus salmonis [1]; [3]): 28.6%
- percentage of sea lice that dropped from treated fish at the end of the treatment period (Lepeophtheirus salmonis [1]; exposure 30 min): 41.2%
- knockdown times (mean±SEM) (Lepeophtheirus salmonis [1]; [4]): 1029 ± 165 s
- percentage of lice for which their knockdown time equalled that of the exposure time (Lepeophtheirus salmonis [1]; [4]): 11.1%
- percentage of sea lice that dropped from treated fish at the end of the treatment period (Lepeophtheirus salmonis [1]; exposure 60 min): 92.9%
- knockdown times (mean±SEM) (Lepeophtheirus salmonis [1]; [5]): 1209 ± 235 s
- percentage of lice for which their knockdown time equalled that of the exposure time (Lepeophtheirus salmonis [1]; [5]): 7.7%
- Fish behaviour observed throughout treatment (farmed Atlantic salmon): no adverse behaviours seen
- percentage responsiveness for sea lice recovered from fish at the end of the treatment period (Lepeophtheirus salmonis [2]; exposure 5 min): 100%
- percentage responsiveness for sea lice recovered from fish at the end of the treatment period (Lepeophtheirus salmonis [2]; exposure 10 min): 100%
- percentage responsiveness of lice recovered from tank at treatment end at 24 hours post-treatment (Lepeophtheirus salmonis [2]; exposure 10 min): 100%
- percentage responsiveness for sea lice recovered from fish at the end of the treatment period (Lepeophtheirus salmonis [2]; exposure 15 min): 45%
- percentage responsiveness of lice recovered from tank at treatment end at 24 hours post-treatment (Lepeophtheirus salmonis [2]; exposure 15 min): 33%
- percentage responsiveness for sea lice recovered from fish at the end of the treatment period (Lepeophtheirus salmonis [2]; exposure 30 min): 50%
- percentage responsiveness of lice recovered from tank at treatment end at 24 hours post-treatment (Lepeophtheirus salmonis [2]; exposure 30 min): 10%
- percentage responsiveness for sea lice recovered from fish at the end of the treatment period (Lepeophtheirus salmonis [2]; exposure 60 min): no lice responsive
- percentage responsiveness for sea lice recovered from fish at the end of the treatment period (Lepeophtheirus salmonis [2]; exposure 60 min, listed as Imidacloprid): 0%
- percentage responsiveness of lice recovered from tank at treatment end at 24 hours post-treatment (Lepeophtheirus salmonis [2]; exposure 60 min): 0%
